The target in experiment [1] is NAALADase (Rattus norvegicus, UniProt P70627). As to the kind of experiment: In vitro inhibition of NAALADase activity. The format is biochemical. The settings on record: for Ki: read-out: K1.
Experiment [2] deals with male Brown Norway rats. Nature of the experiment: Experimental rat glaucoma (IOP elevation by hypertonic saline), optic nerve fiber counting. Format: in vivo. To be noted: 8 week group, 10 mg/kg daily i.p. As for the experimental part:
(§1) All experiments complied with the Association for Research in Vision and Ophthalmology Statement for the Use of Animals in Ophthalmic and Vision Research. 82 male Brown Norway rats (Rattus norvegicus), each weighing approximately 250 gm, were treated using procedures approved by the Animal Care Committee of the Johns Hopkins University School of Medicine. The rats were housed with a 12 hour light/12 hour dark cycle and fed ad libitum .
EXPERIMENTAL GLAUCOMA: Unilateral elevation of IOP was produced in 56 rats by microinjection of hypertonic saline into episcleral veins, following procedures described in Morrison, J. et al., IOVS (March 1998) 39:526-531. Beginning on the day of IOP elevation, the rats were treated daily with intraperitoneal injections of either a vehicle (23 rats with 50 mM HEPES-buffered saline) or a NAALADase inhibitor (11 rats with 10 mg/kg of 2-[[(2,3,4,5,6-pentafluorobenzyl)hydroxyphosphinyl]-methyl]pentanedioic acid (“Compound A”) and 22 rats with 10 mg/kg of 2-(3-sulfanylpropyl)pentanedioic acid (“Compound B”)). 11 saline treated rats, 11 Compound A treated rats and 11 Compound B treated rats were sacrificed at 8 weeks, and the remaining rats at 12 weeks, after initial IOP elevation.
(§2) OPTIC NERVE COUNTING: The rats were sacrificed by exsanguination under deep pentobarbital anesthesia. They were perfused through the heart with 2% paraformaldehyde/2% glutaraldehyde in 0.1 M phosphate buffer, pH 7.2, and the eyes with attached optic nerves were removed. A cross-section of the optic nerve from both experimental (glaucoma or transection) and control eyes was removed 1.5 mm posterior to the globe, 1 mm in thickness, and post-fixed in 2% osmium tetroxide in buffer. These were processed into epoxy resin, sectioned at 1 micron and stained with toluidine blue.
(§3) The area of the optic nerve cross-section was measured by outlining its outer border at 10×magnification on an image analysis system (Universal Imaging Corp., Westchester, Pa.) with Synsys digital camera and Metamorph software. Three area measurements were taken and the mean value was determined. To measure the density and fiber diameter distributions, images were captured with a 100× phase contrast objective from 10 different areas of each nerve. These were edited to eliminate non-neural objects and the size of each axon internal to the myelin sheath (its minimum diameter) and the density of axons/square mm were calculated for each image and nerve. The mean density was multiplied by total nerve area to yield fiber number for each nerve. The total fiber number in glaucoma or transection nerves was compared to the normal, fellow eye of each rat to yield a percent loss value. The number of axons counted among the 10 images was an approximately 20% sample of the 80-90,000 axons in normal rat nerves. The person measuring axon number was masked to the protocol conducted on the nerves.

Experiment [3] relates to male Brown Norway rats. Nature of the experiment: Optic nerve transection in rats, optic nerve fiber counting. Format: in vivo, Rattus norvegicus. The settings on record: for FIBER NUMBER ± SEM / PERCENT DIFFERENCE ± SEM: 10 mg/kg daily i.p.; for PERCENT DIFFERENCE ± SEM: transected vs normal eye. As for the experimental part: as §1
OPTIC NERVE TRANSECTION: The optic nerve was transected unilaterally in 26 rats under intraperitoneal pentobarbital anesthesia. The conjunctiva was opened with scissors and the optic nerve exposed by traction on extraocular muscles. The transection was performed with microscissors 5 mm posterior to the globe, with specific attention to avoidance of injury to major ocular blood vessels. Immediately after transection, the retina was examined ophthalmoscopically to assure that the retinal arterial blood supply was not disrupted. The conjunctiva was closed with absorbable suture and the eye dressed with antibiotic ointment. Beginning on the day of transection, the rats were treated daily with intraperitoneal injections of either a vehicle (9 rats with 50 mM HEPES-buffered saline) or a NAALADase inhibitor (8 rats with 10 mg/kg of Compound A and 9 rats with 10 mg/kg of Compound B). 5 saline treated rats, 3 Compound A treated rats and 4 Compound B treated rats were sacrificed at 2 weeks, and the remaining rats at 4 weeks, after transection.
as §2, §3

Where [4] appears, read: 2 weeks survival after transection.
Setting [5] is: 4 weeks survival after transection.

20 compounds from patent US7220780B2, “Naaladase inhibitors for treating retinal disorders and glaucoma” (Guilford Pharmaceuticals Inc., priority 2000, dated 2007) can be followed below.

Sequence of NAALADase (P70627 whole entry): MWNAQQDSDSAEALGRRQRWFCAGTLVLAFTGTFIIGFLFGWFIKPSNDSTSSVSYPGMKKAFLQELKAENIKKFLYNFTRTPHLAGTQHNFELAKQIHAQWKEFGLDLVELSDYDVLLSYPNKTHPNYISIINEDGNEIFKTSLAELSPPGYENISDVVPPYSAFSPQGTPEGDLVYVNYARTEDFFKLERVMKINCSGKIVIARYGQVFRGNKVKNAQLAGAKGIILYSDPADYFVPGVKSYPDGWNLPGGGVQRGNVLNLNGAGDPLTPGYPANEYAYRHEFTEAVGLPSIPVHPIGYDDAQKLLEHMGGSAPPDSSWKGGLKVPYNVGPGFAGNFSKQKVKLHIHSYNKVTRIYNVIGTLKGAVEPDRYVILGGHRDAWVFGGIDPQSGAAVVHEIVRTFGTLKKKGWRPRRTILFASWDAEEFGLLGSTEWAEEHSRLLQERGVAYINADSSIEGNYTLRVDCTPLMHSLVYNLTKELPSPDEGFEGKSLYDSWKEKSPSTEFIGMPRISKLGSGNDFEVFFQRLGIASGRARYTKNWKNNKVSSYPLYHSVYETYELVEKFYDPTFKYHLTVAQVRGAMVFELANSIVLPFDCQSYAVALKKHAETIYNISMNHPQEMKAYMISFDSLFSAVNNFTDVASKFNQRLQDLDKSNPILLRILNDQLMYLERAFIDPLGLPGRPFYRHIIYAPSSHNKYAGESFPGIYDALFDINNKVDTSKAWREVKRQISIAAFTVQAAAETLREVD

For `O=C(O)c1cc(OCCS)cc(C(=O)O)c1` [5-(2-mercaptoethoxy)-1,3-benzenedicarboxylic acid], in experiment [1], the Ki stood at 14.5 µM.

As to `O=C(O)c1cc(CS)cc(C(=O)O)c1` [5-mercaptomethyl-1,3-benzenedicarboxylic acid], the Ki in experiment [1] was found to be 6.5 µM. Same read-out and setting: next, `O=C(O)c1ccc(Sc2ccccc2C(=O)O)c(C(=O)O)c1` [4-[(2-carboxyphenyl)thio]-1,3-benzenedicarboxylic acid]: 3.98 µM; `O=C(O)c1cc(OCCCS)cc(C(=O)O)c1` [5-(3-mercaptopropoxy)-1,3-benzenedicarboxylic acid]: 3.3 µM.

Consider `O=C(O)c1ccc(C(=O)O)c(S(=O)(=O)c2cc(C(=O)O)ccc2C(=O)O)c1` [2-[(2,5-dicarboxyphenyl)sulfonyl]-1,4-benzenedicarboxylic acid], for which the Ki in experiment [1] amounted to 1.87 µM. As to `O=C(O)CCC(CP(=O)(O)Cc1c(F)c(F)c(F)c(F)c1F)C(=O)O` (stereo not drawn) [Compound A, 2-[[(2,3,4,5,6-pentafluorobenzyl)hydroxyphosphinyl]-methyl]pentanedioic acid], the results for the “FIBER NUMBER ± SEM” value in experiment [2], in experiment [3] (setting [4]) and in experiment [3] (setting [5]) were 79156 ± 2436, 26,426 ± 13,293 and 13,599 ± 3,519, respectively. For the same compound, the “PERCENT DIFFERENCE ± SEM” value in experiment [2] (fiber number glaucoma vs normal eye, positive = fewer fibers in glaucoma eye) is −1.82 ± 2.92%; in experiment [3] (setting [4]), 65.3 ± 17.8%; in experiment [3] (setting [5]), 82.4 ± 4.0%. Besides, the “IOP INTEGRAL DIFFERENCE ± SEM” value in experiment [2] (glaucoma eye vs normal eye) is given as 85 ± 37.5 mm Hg—days. The “remaining axons relative to the saline-treated rats” value in experiment [3] (2 weeks after transection) was 3 times. With `O=C(O)c1ccc(C(=O)c2ccc(Oc3ccc(C(=O)O)c(C(=O)O)c3)cc2)c(C(=O)O)c1` [4-[4-(2,4-dicarboxybenzoyl)phenoxy]-1,2-benzenedicarboxylic acid], the Ki in experiment [1] stood at 1.17 µM. Still for that read-out and setting: next, `O=C(O)Cc1cc(C(=O)O)ccc1C(=O)O` [2-carboxymethyl-1,4-benzenedicarboxylic acid]: 9 µM; `O=C(Cc1cc(C(=O)O)cc(C(=O)O)c1)NO` [5-[2-(hydroxyamino)-2-oxoethyl]-1,3-benzenedicarboxylic acid]: 12 µM. For the compound `O=C(O)c1ccc(C(=O)O)c(Sc2ccccc2C(=O)O)c1` [2-[(2-carboxyphenyl)thio]-1,4-benzenedicarboxylic acid], in experiment [1], the Ki turned out to be 0.572 µM. Consider `O=C(O)c1cc(C(=O)O)cc(C(=O)NO)c1` [5-[(hydroxyamino)-carbonyl]-1,3-benzenedicarboxylic acid], for which the Ki in experiment [1] turned out to be 1 µM. Regarding `O=C(O)CNc1cc(C(=O)O)cc(C(=O)O)c1` [5-[(carboxymethyl)amino]-1,3-benzenedicarboxylic acid], the Ki in experiment [1] was 100 µM. On the same count and under the same terms, next, `O=C(O)c1ccc(CCS)c(C(=O)O)c1` [4-(2-mercaptoethyl)-1,3-benzenedicarboxylic acid]: 0.116 µM; `O=C(O)c1ccc(OCCCSSCCCOc2ccc(C(=O)O)cc2C(=O)O)c(C(=O)O)c1` [4-[3-[[3-(2,4-dicarboxyphenoxy)-propyl]-dithio]propoxy]-1,3-benzenedicarboxylic acid]: 3.75 µM; `O=C(O)c1cc(CNCc2ccco2)cc(C(=O)O)c1` [5-[[(2-furanylmethyl)amino]methyl]-1,3-benzenedicarboxylic acid]: 50 µM.

On to `O=C(O)c1ccc(S(=O)(=O)c2cc(C(=O)O)ccc2C(=O)O)cc1` [2-[(4-carboxyphenyl)sulfonyl]-1,4-benzenedicarboxylic acid], for which the Ki in experiment [1] is 2.37 µM.

Take `O=C(O)c1cc(CP(=O)(O)O)cc(C(=O)O)c1` [5-phosphonomethyl-1,3-benzenedicarboxylic acid]: the Ki in experiment [1] worked out at 3.1 µM.

As for `O=C(O)c1cc(CCS)cc(C(=O)O)c1` [5-(2-mercaptoethyl)-1,3-benzenedicarboxylic acid], the Ki in experiment [1] was 5.1 µM. Same read-out and setting: next, `O=C(O)c1cc(C(=O)O)cc(P(=O)(O)O)c1` [5-phosphono-1,3-benzenedicarboxylic acid]: 14 µM. Usually IC50 stands for the concentration that gives 50% inhibition. A low value points to inhibition by little substance. “3-(2-Carboxy-4-hydroxycarbamoyl-butyl)-benzoic acid” yielded a 50% inhibitory concentration (IC50) in experiment [1] of 0.0478 µM.
